# According to patent publication US9062088B2, “CDK-inhibiting pyrrolopyrimidine carboxamide derivative or pharmaceutically acceptable salt thereof, and pharmaceutical composition containing the same as active ingredient for preventing or treating hepatocellular carcinoma” (SNU R&DB Foundation, priority 2010, dated 2015):
# What was measured:
# [1] = test system: caspase-3 activity in SNU-354 cells; experiment: Measurement of caspase-3 activity (Experimental Example 4); format: cell-based, human; set-up: unit not given here
# Description: SNU-354 cells treated with the compounds of Example 1˜Example 6 were lysed with lysis buffer (0.5% triton X-100, 20 mM Tris-HCl (pH 7.5), 2 mM magnesium chloride, 1 mM DTT, 1 mM EGTA, 50 mM β-glycerophosphate, 25 mM sodium fluoride, 1 mM Na3VO4, 2 μg/mL leupeptin, 2 μg/mL pepstatin A, 100 μg/mL phenylmethylsulfonyl fluoride, 1 μg/mL antipain). The protease analysis buffer necessary for the reaction (20 mM HEPES (pH 7.5), 10% glycerol, 2 mM DTT) was mixed with 20 μM Ac-DEVD-AMC (BD Biosciences, CA, USA) and cell lysates, followed by reaction at 37° C. for 1 hour. Upon completion of the reaction, caspase-3 activity was measured at 380 nm of excitation and 460 nm of emission with spectrofluorometer (TECAN, Switzerland) and the results are shown in FIG. 25 and Table 12.
# Cdk9 = experiment: Western blotting of Cdk9 activity (phospho RNA Pol II Ser 2); format: cell-based, human; conditions: 0 nM = 100
# Description: After treating the compound of Example 2 to SNU-354 cells, cell pellet was lysed with lysis buffer (0.5% triton X-100, 20 mM Tris-HCl (pH 7.5), 2 mM magnesium chloride, 1 mM DTT, 1 mM EGTA, 50 mM β-glycerophosphate, 25 mM sodium fluoride, 1 mM Na3VO4, 2 μg/mL leupeptin, 2 μg/mL pepstatin A, 100 μg/mL phenylmethylsulfonyl fluoride, and 1 μg/mL antipain) at 4° C. for 1 hour, followed by quantification of protein. A proper amount of protein was electrophoresed on SDS-PAGE gel and then transferred onto polyvinylidene difluoride membrane (Millipore Co., Bedford, Mass.). The membrane was reacted in inhibiting solution (PBS, 5% skim milk, 0.1% tween-20) at room temperature for 1˜2 hours. The membrane was reacted with the primary antibody (goat anti-phospho-Rb, rabbit anti-nucleolin) diluted in the inhibiting solution (1:1000). Then, the membrane was washed with PBST, followed by reaction with the proper secondary antibody (horseradish peroxidase (HRP) conjugated) at room temperature for 1 hour.
# Experiment was performed by the same manner as described in step 2 of Experimental Example 1 except that rabbit anti-phospho RNA Pol II (Ser 5) and rabbit anti-phospho RNA Pol II (Ser 2) (from Bethyl, TX, USA) were used as primary antibodies. The results are shown FIG. 9˜FIG. 12, and Table 4 and Table 5.
# SNU-354 cells = experiment: FACS analysis of sub G1 ratio (Experimental Example 1-6-3); format: cell-based, human
# Description: The cells were collected and washed with cold PBS, followed by reaction in 500 μl of cold 70% ethanol at 4° C. for overnight to fix the cells. The cells were washed with 500 μl of PBS three times, followed by reaction with 500 μl of PBS containing 50 μg/mL propidium iodide (P1) and 50 μl of 1 mg/mL RNAse A at room temperature for 30 minutes in the darkness. Fluorescence of the P1 stained cell was measured by using caliber flow cytometer and cell quest program (Becton Dickinson Immunocytometry Systems, CA, USA). Sub G1 ratio changes of HCC SNU-354 cells induced by the compounds of Examples 1 and 2 were measured by FACS analysis. The results are shown in FIG. 19, FIG. 20, Table 9 and Table 10.
# [2] = test system: Mcl-1, survivin, XIAP mRNA; experiment: RT-PCR of Mcl-1, survivin, XIAP mRNA in SNU-354 cells; format: cell-based, human; conditions: FIG. 14
# Description: Total RNA was extracted from SNU-354 cells treated with the compound of Example 2 according to the conventional method. For reverse transcription, 5 μg of the extracted RNA and M-MLV reverse transcriptase (Promega Corporation, WI, USA) were used. Reverse Transcription was induced at 37° C. for 1 hour, followed by further reaction at 95° C. for 5 minutes. For PCR, 5 μl of cDNA obtained from the reverse transcription was used as a template and Taq DNA polymerase was used. Total reaction volume was 50 μl. PCR was performed as follows; predenaturation at 95° C. for 5 minutes, denaturation at 95° C. for 1 minute, annealing at 56° C. for 1 minute, polymerization at 72° C. for 1 minute, 30 cycles from denaturation to polymerization, and final extension at 72° C. for 10 minutes. After PCR, the PCR products were analyzed by electrophoresis on 1% agarose gel. The forward primer for Mcl-1 was 5′-CGGTAATCGGACTCAACCTC-3′ (SEQ ID NO: 1) and the reverse primer was 5′-CCT CCT TCT CCG TAG CCA A-3′ (SEQ ID NO: 2). The forward primer for XIAP was 5′-AGTGGTAGTCCTGTTTCAGCATCA-3′ (SEQ ID NO: 3) and the reverse primer was 5′-CCG CAC GGT ATC TCC TTC A-3′ (SEQ ID NO: 4). The forward primer for survivin was 5′-TGC CTG GCA GCC CTT TC-3′ (SEQ ID NO: 5) and the reverse primer was 5′-CCTCCAAGAAGGGCCAGTTC-3′ (SEQ ID NO. 6). […]
# normal liver tissues = experiment: TUNEL assay and caspase-3 immunohistochemistry of normal liver tissues; format: in vivo, nude mice; conditions: treated mice; FIG. 23-B
# Description: All the xenografted tumors and liver tissues extracted above were fixed in 36% formaldehyde solution (Junsei Chemical Co., Ltd, Tokyo, JAPAN), followed by paraffin embedding. The embedded tissues were cut into 5 μm sections. H&E staining and TUNEL assay were performed for examining apoptosis with those sections. The expression of cleaved caspase-3 in the tissue section was measured by using cleaved caspase-3 monoclonal antibody (Cell Signaling, MA, USA). ABC peroxidase (Dako Cytomation California, Inc., CA, USA) labeling was performed for immunological sensitization and the results are shown in FIG. 23. As shown in FIG. 23-A, TUNEL positive spots and caspase-3 positive spots were observed more in the group treated with the compound of Example 2 than in the control. […] As shown in FIG. 23-B, it was investigated whether or not the compound of Example 2 could affect normal liver tissues.
SMILES,Caspase-3 activity ([1]; 5 μM),Caspase-3 activity ([1]; 10 μM),Cdk9 activity (Cdk9; 0.1 nM) [%],Cdk9 activity (Cdk9; 0.5 nM) [%],Cdk9 activity (Cdk9; 1 nM) [%],Cdk9 activity (Cdk9; 5 nM) [%],Cdk9 activity (Cdk9; 10 nM) [%],Cdk9 activity (Cdk9; 50 nM) [%],"sub G1 ratio (%) (SNU-354 cells; 0.1 μM, 24 hours, 0 μM = 3.0)","sub G1 ratio (%) (SNU-354 cells; 0.5 μM, 24 hours, 0 μM = 3.0)","sub G1 ratio (%) (SNU-354 cells; 1 μM, 24 hours, 0 μM = 3.0)","sub G1 ratio (%) (SNU-354 cells; 5 μM, 24 hours, 0 μM = 3.0)","sub G1 ratio (%) (SNU-354 cells; 10 μM, 24 hours, 0 μM = 3.0)","sub G1 ratio (%) (SNU-354 cells; 50 μM, 24 hours, 0 μM = 3.0)","sub G1 ratio (%) (SNU-354 cells; 50 μM, time 6 h, 0 h = 10.3)","sub G1 ratio (%) (SNU-354 cells; 50 μM, time 12 h, 0 h = 10.3)","sub G1 ratio (%) (SNU-354 cells; 50 μM, time 18 h, 0 h = 10.3)","sub G1 ratio (%) (SNU-354 cells; 50 μM, time 24 h, 0 h = 10.3)",concentration at which sub G1 ratio was rapidly increased (SNU-354 cells; 24 hours) [µM],also measured
"NC(=O)c1c(Br)nc2n([C@H]3O[C@@H](CO)[C@H](O)[C@H]3O)cnc(N)c1-2 [Example 1, 4-amino-6-bromo-1-((2S,3R,4R,5S)-3,4-dihydroxy-5-(hydroxymethyl)-tetrahydrofuran-2-yl)-1H-pyrrolo[2,3-d]pyrimidine-5-carboxamide]",8.4,8.1,90.4,87.0,46.1,1.9,1.3,0.2,2.7,3.2,3.5,28.1,64.2,71.1,29.1,51.8,71.7,78.1,5,
"CC(C)C(=O)OC[C@@H]1O[C@H](n2cnc(N)c3c(C(N)=O)c(Br)nc2-3)[C@H](O)[C@H]1O [Example 2, ((2S,3R,4R,5S)-5-(4-amino-6-bromo-5-carbamoyl-1H-pyrrolo[2,3-d]pyrimidin-1-yl)-3,4-dihydroxy-tetrahydrofuran-2-yl)methyl isobutyrate]",9.7,11.0,81.5,27.3,11,2.2,1.1,0.7,3.8,39.6,52.0,69.8,72.6,73.1,51.6,67.6,72.3,81.2,0.5,"Mcl-1, survivin and XIAP mRNA [2]: decrease of mRNA; apoptosis in normal liver tissues (TUNEL, caspase-3 immunohistochemistry) (normal liver tissues): apoptosis was not observed at all"
